Test results taken from patent publication US20230413824A1, “AGROCHEMICAL COMPOSITION COMPRISING 3-SUBSTITUTED PHENYLAMIDINE COMPOUNDS AND USE THEREOF” (PI INDUSTRIES LIMITED, priority 2020, published 2023).
“And” between values parts separate entries of the source, which are not always exact repeats. Equal values may be shown once. Read-outs that look alike come from different tables or passages of the source.

Columns and labels:
Type in all cases: in vivo
[1] = system: Septoria nodorum; assay: Parastagonospora nodorum/Septoria nodorum/Stagnospora nodorum test in wheat (preventive, glasshouse); settings: single compound
Experimental: The single compounds or compound combinations were dissolved in 2% DMSO/Acetone and then mixed with water containing emulsifier to a calibrated spray volume of 50 mL. The spray solutions were poured into spray bottles for further applications.
To test the preventive activity of compounds, healthy young wheat plants, raised in the greenhouse, were sprayed with the single compound or mixture preparation at the stated application rates inside the spray cabinets using hollow cone nozzles. One day after treatment, the plants were inoculated with a suspension containing 2.8×10^6 Stagnospora nodorum inoculum. The inoculated plants were then kept in a greenhouse chamber at 22-25° C. temperature and 90-100% relative humidity for disease expression.
A visual assessment of the performance of the compounds and respective compound combinations was carried out by rating the disease severity (0-100% scale) on treated plants 3, 7 and 10 days after application. Efficacy (% control) of the compounds was calculated by comparing the disease rating in the treatment with the one of the untreated control. The compounds were also assessed for their plant compatibility by recording symptoms like necrosis, chlorosis & stunting. The results are shown for the compound of formula (I-1) to (I-5) in Table E1-E5.

[2] = system: Alternaria solani; assay: Alternaria solani test in tomato (preventive, glasshouse); settings: for pest or weed control at 1 ppm / pest or weed control at 5 ppm / pest or weed control at 20 ppm / pest or weed control at 0.05 ppm / pest or weed control at 0.1 ppm: Alternaria solani, read-out: Observed Efficacy (%)
[3] = system: Phakopsora pachyrhizi; assay: Phakopsora pachyrhizi test in soybean (preventive, glasshouse); settings: single compound; for pest or weed control at 0.0001 ppm / pest or weed control at 0.001 ppm / pest or weed control at 0.01 ppm / pest or weed control at 0.05 ppm / pest or weed control at 0.1 ppm: Phakopsora pachyrhizi, read-out: Observed Efficacy (%)
[4] = system: Botrytis cinerea; assay: Botrytis cinerea test in tomato (preventive, glasshouse); settings: single compound; for pest or weed control at 1 ppm / pest or weed control at 5 ppm / pest or weed control at 20 ppm / pest or weed control at 0.05 ppm / pest or weed control at 0.1 ppm: Botrytis cinerea, read-out: Observed Efficacy (%); for pest or weed control at 1 ppm: Conc. 1 ppm; for pest or weed control at 5 ppm: Conc. 5 ppm; for pest or weed control at 20 ppm: Conc. 20 ppm
[5] = system: Pyricularia oryzae; assay: whole plant or invertebrate; settings: Pyricularia oryzae, read-out: Observed Efficacy
[6] = system: Erysiphe cichoracearum; assay: Erysiphe cichoracearum test in cucumber (preventive, glasshouse); settings: single compound
[7] = Table B3, single compound, Conc. 0.05 ppm, preventive
[8] = Table B3, single compound, Conc. 0.1 ppm, preventive
[9] = Table B4, single compound, Conc. 0.05 ppm, preventive
[10] = Table B4, single compound, Conc. 0.1 ppm, preventive
[11] = single compound, 0.05 ppm, preventive
[12] = single compound, 0.05 ppm, preventive spray
[13] = single compound, 0.1 ppm, preventive
[14] = single compound, 0.1 ppm, preventive spray
[15] = single compound, Conc. 0.05 ppm, preventive spray
[16] = 0.05 ppm, preventive spray on soybean
[17] = 0.1 ppm, preventive spray on soybean
[18] = Conc. 0.05 ppm, soybean, preventive, Table D4
[19] = Conc. 0.1 ppm, soybean, preventive, Table D4
[20] = Conc. 0.1 ppm, preventive spray on tomato, % control vs untreated
[21] = Parastagonospora nodorum, read-out: Observed Efficacy (%)
[22] = preventive spray on tomato, % control vs untreated
[23] = Parastagonospora nodorum, 0.1 ppm, read-out: Observed Efficacy (%)
[24] = Conc. 0.05 ppm, soybean, preventive, Table D5
[25] = Conc. 0.1 ppm, soybean, preventive, Table D5
[26] = Conc. 0.05 ppm, preventive spray on tomato, % control vs untreated
[27] = Table F4, Conc. 0.05 ppm, Botrytis cinerea in tomato, preventive
[28] = Table F4, Conc. 0.1 ppm, Botrytis cinerea in tomato, preventive
[29] = 0.05 ppm, preventive spray on cucumber
[30] = 0.1 ppm, preventive spray on cucumber
[31] = Table F5, Conc. 0.05 ppm, Botrytis cinerea in tomato, preventive
[32] = Table F5, Conc. 0.1 ppm, Botrytis cinerea in tomato, preventive

## Cn1cc(C(=O)Nc2ccc(F)cc2-c2ccc(Cl)c(Cl)c2)c(C(F)F)n1 [Bixafen, bixafen]
[1]; 0.05 ppm
  Observed Efficacy (%): 18%
[1]; 0.1 ppm
  Observed Efficacy (%): 29%
[2]; [7]
  Observed Efficacy (%): 11%
[2]; [8]
  Observed Efficacy (%): 29%
[2]; [9]
  Observed Efficacy (%): 11%
[2]; [10]
  Observed Efficacy (%): 29%
[2]; [11]
  Observed Efficacy (%): 11%
[2]; [12]
  Observed Efficacy (%): 11%
[2]; [13]
  Observed Efficacy (%): 29%
[2]; [14]
  Observed Efficacy (%): 29%
[2]; [15]
  Observed Efficacy: 11%
[2]; single compound, Conc. 0.1 ppm, preventive spray
  Observed Efficacy: 29%
[3]; [16]
  Observed Efficacy (%): 15%
[3]; [17]
  Observed Efficacy (%): 22%
[3]; [18]
  Observed Efficacy (%): 15%
[3]; [19]
  Observed Efficacy (%): 22%
[4]; [20]
  Observed Efficacy (%): 48%

## CCN(C)C=Nc1cc(C)cc(Cc2ccc(C)cc2)c1C [Compound (I-2), N′-(2,5-dimethyl-3-(4-methylbenzyl)phenyl)-N-ethyl-N-methylformimidamide]
[1]; [21]
  pest or weed control at 1 ppm: 13%
  pest or weed control at 5 ppm: 23%
  pest or weed control at 20 ppm: 33%
[2]; single compound, 1 ppm, preventive spray
  pest or weed control at 1 ppm: 13%
[2]; single compound, 5 ppm, preventive spray
  pest or weed control at 5 ppm: 23%
[2]; single compound, 20 ppm, preventive spray
  pest or weed control at 20 ppm: 33%
[3]; preventive spray on soybean
  pest or weed control at 0.0001 ppm: 47%
  pest or weed control at 0.001 ppm: 57%
  pest or weed control at 0.01 ppm: 68%
[5]
  pest or weed control at 1 ppm: 13%
  pest or weed control at 5 ppm: 23%
  pest or weed control at 20 ppm: 37%
[4]; [22]
  pest or weed control at 1 ppm: 23%
  pest or weed control at 5 ppm: 33%
  pest or weed control at 20 ppm: 53%

## CCN(C)C=Nc1cc(C)cc(Cc2ccccc2C)c1C [Compound (I-3), N′-(2,5-dimethyl-3-(2-methylbenzyl)phenyl)-N-ethyl-N-methylformimidamide]
[1]; [21]
  pest or weed control at 1 ppm: 13%
  pest or weed control at 5 ppm: 27%
  pest or weed control at 20 ppm: 40%
[2]; Table B3, single compound, Conc. 1 ppm, preventive
  pest or weed control at 1 ppm: 17%
[2]; Table B3, single compound, Conc. 5 ppm, preventive
  pest or weed control at 5 ppm: 23%
[2]; Table B3, single compound, Conc. 20 ppm, preventive
  pest or weed control at 20 ppm: 43%
[3]; preventive spray on soybean
  pest or weed control at 0.0001 ppm: 47%
  pest or weed control at 0.001 ppm: 53%
  pest or weed control at 0.01 ppm: 65%
[4]; [22]
  pest or weed control at 1 ppm: 57%
  pest or weed control at 5 ppm: 67%
  pest or weed control at 20 ppm: 77%
[6]; Golovinomyces cichoracearum, 1 ppm, preventive spray on cucumber, read-out: Observed Efficacy (%)
  pest or weed control at 1 ppm: 17%
[6]; Golovinomyces cichoracearum, 5 ppm, preventive spray on cucumber, read-out: Observed Efficacy (%)
  pest or weed control at 5 ppm: 27%
[6]; Golovinomyces cichoracearum, 20 ppm, preventive spray on cucumber, read-out: Observed Efficacy (%)
  pest or weed control at 20 ppm: 47%

## O=[N+]([O-])c1cc(C(F)(F)F)c(Cl)c([N+](=O)[O-])c1Nc1ncc(C(F)(F)F)cc1Cl [Fluazinam]
[1]; [23]
  pest or weed control at 0.1 ppm: 21%
[2]; [12]
  pest or weed control at 0.05 ppm: 7%
[2]; [14]
  pest or weed control at 0.1 ppm: 16%
[2]; [7]
  Observed Efficacy (%): 7%
[2]; [8]
  Observed Efficacy (%): 16%
[2]; [9]
  Observed Efficacy (%): 7%
[2]; [10]
  Observed Efficacy (%): 16%
[2]; [11]
  Observed Efficacy (%): 7%
[2]; [13]
  Observed Efficacy (%): 16%
[3]; [16]
  pest or weed control at 0.05 ppm: 2%
[3]; [17]
  pest or weed control at 0.1 ppm: 10%
[3]; [18]
  Observed Efficacy (%): 2%
[3]; [24]
  Observed Efficacy (%): 2%
[3]; [19]
  Observed Efficacy (%): 10%
[3]; [25]
  Observed Efficacy (%): 10%
[4]; [26]
  pest or weed control at 0.05 ppm: 29%
[4]; [20]
  pest or weed control at 0.1 ppm: 38%
[4]; [27]
  Observed Efficacy (%): 29%
[4]; [28]
  Observed Efficacy (%): 38%
[6]; Golovinomyces cichoracearum, 0.05 ppm, cucumber, preventive, read-out: Observed Efficacy (%)
  pest or weed control at 0.05 ppm: 11%
[6]; Golovinomyces cichoracearum, 0.1 ppm, cucumber, preventive, read-out: Observed Efficacy (%)
  pest or weed control at 0.1 ppm: 18%
[6]; [29]
  Observed Efficacy (%): 11%
[6]; [30]
  Observed Efficacy (%): 18%

## O=C(NCCc1ncc(C(F)(F)F)cc1Cl)c1ccccc1C(F)(F)F [Fluopyram]
[1]; Parastagonospora nodorum, 0.05 ppm, read-out: Observed Efficacy (%)
  pest or weed control at 0.05 ppm: 8%
[1]; [23]
  pest or weed control at 0.1 ppm: 21%
[2]; [12]
  pest or weed control at 0.05 ppm: 26%
[2]; [14]
  pest or weed control at 0.1 ppm: 35%
[2]; [7]
  Observed Efficacy (%): 26%
[2]; [8]
  Observed Efficacy (%): 35%
[2]; [9]
  Observed Efficacy (%): 26%
[2]; [10]
  Observed Efficacy (%): 35%
[2]; [11]
  Observed Efficacy (%): 26%
[2]; [13]
  Observed Efficacy (%): 35%
[3]; [16]
  pest or weed control at 0.05 ppm: 7%
[3]; [17]
  pest or weed control at 0.1 ppm: 10%
[3]; [18]
  Observed Efficacy (%): 7%
[3]; [24]
  Observed Efficacy (%): 7%
[3]; [19]
  Observed Efficacy (%): 10%
[3]; [25]
  Observed Efficacy (%): 10%
[4]; [26]
  pest or weed control at 0.05 ppm: 38%
[4]; [20]
  pest or weed control at 0.1 ppm: 45%
[4]; [27]
  Observed Efficacy (%): 38%
[4]; [28]
  Observed Efficacy (%): 45%
[6]; Golovinomyces cichoracearum, 0.05 ppm, preventive spray on cucumber, read-out: Observed Efficacy (%)
  pest or weed control at 0.05 ppm: 32%
[6]; Golovinomyces cichoracearum, 0.1 ppm, preventive spray on cucumber, read-out: Observed Efficacy (%)
  pest or weed control at 0.1 ppm: 39%

## C[C@@H]1CC(C)(C)c2cccc(NC(=O)c3cn(C)nc3C(F)F)c21 [Inpyrfluxam]
[1]; 0.05 ppm
  Observed Efficacy (%): 12%
[1]; 0.1 ppm
  Observed Efficacy (%): 29%
[2]; [9]
  Observed Efficacy (%): 14%
[2]; [10]
  Observed Efficacy (%): 23%
[2]; [12]
  Observed Efficacy (%): 14%
[2]; [14]
  Observed Efficacy (%): 23%
[3]; [16]
  Observed Efficacy (%): 18%
[3]; [17]
  Observed Efficacy (%): 30%
[3]; [18]
  Observed Efficacy (%): 18%
[3]; [19]
  Observed Efficacy (%): 30%
[4]; [27]
  Observed Efficacy (%): 25%
[4]; [28]
  Observed Efficacy (%): 38%
[4]; [31]
  Observed Efficacy (%): 25%
[4]; [32]
  Observed Efficacy (%): 38%
[4]; [26]
  Observed Efficacy (%): 35% and 25%
[4]; [20]
  Observed Efficacy (%): 38%
[6]; 0.05 ppm, cucumber, preventive
  Observed Efficacy (%): 29%
[6]; [29]
  Observed Efficacy (%): 29%
[6]; 0.1 ppm, cucumber, preventive
  Observed Efficacy (%): 38%
[6]; [30]
  Observed Efficacy (%): 38%

## propineb
[1]; 0.05 ppm
  Observed Efficacy (%): 12%
[1]; 0.1 ppm
  Observed Efficacy (%): 24%
[2]; [9]
  Observed Efficacy (%): 20%
[2]; [10]
  Observed Efficacy (%): 31%
[2]; [11]
  Observed Efficacy (%): 20%
[2]; [12]
  Observed Efficacy (%): 20%
[2]; [14]
  Observed Efficacy (%): 31%
[2]; [15]
  Observed Efficacy: 20%
[3]; [16]
  Observed Efficacy (%): 20%
[3]; [17]
  Observed Efficacy (%): 33%
[3]; [18]
  Observed Efficacy (%): 20%
[3]; [24]
  Observed Efficacy (%): 20%
[3]; [19]
  Observed Efficacy (%): 33%
[3]; [25]
  Observed Efficacy (%): 33%
[4]; [27]
  Observed Efficacy (%): 15%
[4]; [28]
  Observed Efficacy (%): 22%
[4]; [31]
  Observed Efficacy (%): 15%
[4]; [32]
  Observed Efficacy (%): 22%
[4]; [26]
  Observed Efficacy (%): 15%
[4]; [20]
  Observed Efficacy (%): 22%
[6]; 0.05 ppm, cucumber, preventive
  Observed Efficacy (%): 14%
[6]; [29]
  Observed Efficacy (%): 14%
[6]; 0.1 ppm, cucumber, preventive
  Observed Efficacy (%): 43%
[6]; [30]
  Observed Efficacy (%): 43%
